# Measured values from PubChem BioAssay (NCI).
#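 Results reflect a 48-hour exposure of cells in 96-well plates to compound at five concentrations. TGI denotes the concentration required for complete inhibition of growth.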
# How the values were obtained:
# Assay in all cases: inhibition of tumour cell growth, NCI panel, 48 h
# [1] = tested on: 786-0 renal
# [2] = tested on: A498 renal
# [3] = tested on: A549 NSCLC
# [4] = tested on: ACHN renal
# [5] = tested on: CAKI-1 renal
# [6] = tested on: CCRF-CEM leukemia
# [7] = tested on: COLO 205 colon
# [8] = tested on: DLD-1 colon
# [9] = tested on: DMS 114 small cell lung
# [10] = tested on: DMS 273 small cell lung
# [11] = tested on: EKVX NSCLC
# [12] = tested on: HCT-116 colon
# [13] = tested on: HCT-15 colon
# [14] = tested on: HL-60(TB) leukemia
# [15] = tested on: HOP-18 NSCLC
# [16] = tested on: HOP-62 NSCLC
# [17] = tested on: HOP-92 NSCLC
# [18] = tested on: HT29 colon
# [19] = tested on: IGROV1 ovarian
# [20] = tested on: K-562 leukemia
# [21] = tested on: KM12 colon
# [22] = tested on: KM20L2 colon
# [23] = tested on: LOX IMVI melanoma
# [24] = tested on: LXFL 529 NSCLC
# [25] = tested on: M14 melanoma
# [26] = tested on: M19-MEL melanoma
# [27] = tested on: MALME-3M melanoma
# [28] = tested on: MOLT-4 leukemia
# [29] = tested on: NCI-H226 lung
# [30] = tested on: NCI-H23 lung
# [31] = tested on: NCI-H460 lung
# [32] = tested on: NCI-H522 lung
# [33] = tested on: OVCAR-3 ovarian
# [34] = tested on: OVCAR-4 ovarian
# [35] = tested on: OVCAR-5 ovarian
# [36] = tested on: OVCAR-8 ovarian
# [37] = tested on: RPMI-8226 leukemia
# [38] = tested on: RXF 393 renal
# [39] = tested on: SF-268 CNS
# [40] = tested on: SF-295 CNS
# [41] = tested on: SF-539 CNS
# [42] = tested on: SK-MEL-2 melanoma
# [43] = tested on: SK-MEL-28 melanoma
# [44] = tested on: SK-MEL-5 melanoma
# [45] = tested on: SK-OV-3 ovarian
# [46] = tested on: SN12C renal
# [47] = tested on: SNB-19 CNS
# [48] = tested on: SNB-75 CNS
# [49] = tested on: SNB-78 CNS
# [50] = tested on: SR leukemia
# [51] = tested on: SW-620 colon
# [52] = tested on: TK-10 renal
# [53] = tested on: U251 CNS
# [54] = tested on: UACC-257 melanoma
# [55] = tested on: UACC-62 melanoma
# [56] = tested on: UO-31 renal
# [57] = tested on: XF 498 CNS
# [58] = tested on: HCC-2998 colon
# [59] = tested on: RXF-631 renal
structure (smiles),measurement,setting,value
CC(C)(C)N=NC(C)(C)N=C=O,TGI,[1],> 100 µM
same,TGI,[2],> 100 µM
same,TGI,[3],> 100 µM
same,TGI,[4],> 100 µM
same,TGI,[5],> 100 µM
same,TGI,[6],> 100 µM
same,TGI,[7],> 100 µM
same,TGI,[8],> 100 µM
same,TGI,[9],> 100 µM
same,TGI,[10],> 100 µM
same,TGI,[11],> 100 µM
same,TGI,[12],> 100 µM
same,TGI,[13],> 100 µM
same,TGI,[14],> 100 µM
same,TGI,[15],> 100 µM
same,TGI,[16],> 100 µM
same,TGI,[17],> 100 µM
same,TGI,[18],> 100 µM
same,TGI,[19],> 100 µM
same,TGI,[20],> 100 µM
same,TGI,[21],> 100 µM
same,TGI,[22],> 100 µM
same,TGI,[23],> 100 µM
same,TGI,[24],> 100 µM
same,TGI,[25],> 100 µM
same,TGI,[26],> 100 µM
same,TGI,[27],> 100 µM
same,TGI,[28],> 100 µM
same,TGI,[29],> 100 µM
same,TGI,[30],> 100 µM
same,TGI,[31],> 100 µM
same,TGI,[32],> 100 µM
same,TGI,[33],> 100 µM
same,TGI,[34],> 100 µM
same,TGI,[35],> 100 µM
same,TGI,[36],> 100 µM
same,TGI,[37],> 100 µM
same,TGI,[38],> 100 µM
same,TGI,[39],> 100 µM
same,TGI,[40],> 100 µM
same,TGI,[41],> 100 µM
same,TGI,[42],> 100 µM
same,TGI,[43],> 100 µM
same,TGI,[44],> 100 µM
same,TGI,[45],> 100 µM
same,TGI,[46],> 100 µM
same,TGI,[47],> 100 µM
same,TGI,[48],> 100 µM
same,TGI,[49],> 100 µM
same,TGI,[50],> 100 µM
same,TGI,[51],> 100 µM
same,TGI,[52],> 100 µM
same,TGI,[53],> 100 µM
same,TGI,[54],> 100 µM
same,TGI,[55],> 100 µM
same,TGI,[56],> 100 µM
same,TGI,[57],> 100 µM
CC(=O)NN1C(=O)C(Cc2ccccc2)c2ccccc21 (stereo unspecified),TGI,[1],> 100 µM
same,TGI,[2],> 100 µM
same,TGI,[3],> 100 µM
same,TGI,[4],> 100 µM
same,TGI,[5],> 100 µM
same,TGI,[6],> 100 µM
same,TGI,[7],> 100 µM
same,TGI,[8],> 100 µM
same,TGI,[9],> 100 µM
same,TGI,[10],> 100 µM
same,TGI,[11],> 100 µM
same,TGI,[58],> 100 µM
same,TGI,[12],> 100 µM
same,TGI,[13],> 100 µM
same,TGI,[15],> 100 µM
same,TGI,[16],> 100 µM
same,TGI,[17],> 100 µM
same,TGI,[18],> 100 µM
same,TGI,[19],> 100 µM
same,TGI,[20],> 100 µM
same,TGI,[21],> 100 µM
same,TGI,[22],> 100 µM
same,TGI,[23],> 100 µM
same,TGI,[25],> 100 µM
same,TGI,[26],> 100 µM
same,TGI,[27],> 100 µM
same,TGI,[28],> 100 µM
same,TGI,[29],> 100 µM
same,TGI,[30],> 100 µM
same,TGI,[31],> 100 µM
same,TGI,[33],> 100 µM
same,TGI,[34],> 100 µM
same,TGI,[35],> 100 µM
same,TGI,[36],> 100 µM
same,TGI,[37],> 100 µM
same,TGI,[59],> 100 µM
same,TGI,[39],> 100 µM
same,TGI,[40],> 100 µM
same,TGI,[41],> 100 µM
same,TGI,[42],> 100 µM
same,TGI,[43],> 100 µM
same,TGI,[44],> 100 µM
same,TGI,[45],> 100 µM
same,TGI,[46],> 100 µM
same,TGI,[47],> 100 µM
same,TGI,[48],> 100 µM
same,TGI,[49],> 100 µM
same,TGI,[51],> 100 µM
same,TGI,[52],> 100 µM
same,TGI,[53],> 100 µM
same,TGI,[54],> 100 µM
same,TGI,[55],> 100 µM
same,TGI,[56],> 100 µM
same,TGI,[57],> 100 µM
CNC(=O)CN(CC(=O)O)C(=O)NC,TGI,[1],> 100 µM
same,TGI,[2],> 100 µM
same,TGI,[3],> 100 µM
same,TGI,[4],> 100 µM
same,TGI,[5],> 100 µM
same,TGI,[6],> 100 µM
same,TGI,[7],> 100 µM
same,TGI,[8],> 100 µM
same,TGI,[10],> 100 µM
same,TGI,[11],> 100 µM
same,TGI,[58],> 100 µM
same,TGI,[13],> 100 µM
same,TGI,[14],> 100 µM
same,TGI,[16],> 100 µM
same,TGI,[17],> 100 µM
same,TGI,[18],> 100 µM
same,TGI,[19],> 100 µM
same,TGI,[20],> 100 µM
same,TGI,[21],> 100 µM
same,TGI,[23],> 100 µM
same,TGI,[24],> 100 µM
same,TGI,[25],> 100 µM
same,TGI,[26],> 100 µM
same,TGI,[27],> 100 µM
same,TGI,[28],> 100 µM
same,TGI,[30],> 100 µM
same,TGI,[32],> 100 µM
same,TGI,[33],> 100 µM
same,TGI,[34],> 100 µM
same,TGI,[35],> 100 µM
same,TGI,[36],> 100 µM
same,TGI,[37],> 100 µM
same,TGI,[38],> 100 µM
same,TGI,[59],> 100 µM
same,TGI,[39],> 100 µM
same,TGI,[40],> 100 µM
same,TGI,[41],> 100 µM
same,TGI,[42],> 100 µM
same,TGI,[44],> 100 µM
same,TGI,[45],> 100 µM
same,TGI,[47],> 100 µM
same,TGI,[48],> 100 µM
same,TGI,[49],> 100 µM
same,TGI,[50],> 100 µM
same,TGI,[51],> 100 µM
same,TGI,[52],> 100 µM
same,TGI,[53],> 100 µM
same,TGI,[54],> 100 µM
same,TGI,[55],> 100 µM
same,TGI,[56],> 100 µM
same,TGI,[57],> 100 µM
COc1ccc2c(c1)CCc1c-2n[nH]c1-c1[nH]nc2c1CCc1cc(OC)ccc1-2,TGI,[1],41.1 µM
same,TGI,[2],> 100 µM
same,TGI,[3],> 100 µM
same,TGI,[4],> 100 µM
same,TGI,[5],92.7 µM
same,TGI,[6],> 100 µM
same,TGI,[7],> 100 µM
same,TGI,[8],> 100 µM
same,TGI,[9],> 100 µM
same,TGI,[10],52.8 µM
same,TGI,[11],> 100 µM
same,TGI,[58],> 100 µM
same,TGI,[12],> 100 µM
same,TGI,[13],> 100 µM
same,TGI,[14],> 100 µM
same,TGI,[15],98.5 µM
same,TGI,[16],56.3 µM
same,TGI,[17],78.1 µM
same,TGI,[18],> 100 µM
same,TGI,[19],> 100 µM
same,TGI,[20],> 100 µM
same,TGI,[21],> 100 µM
same,TGI,[22],> 100 µM
same,TGI,[23],> 100 µM
same,TGI,[24],> 100 µM
same,TGI,[25],> 100 µM
same,TGI,[26],> 100 µM
same,TGI,[27],> 100 µM
same,TGI,[28],> 100 µM
same,TGI,[29],85.9 µM
same,TGI,[30],> 100 µM
same,TGI,[31],> 100 µM
same,TGI,[32],67.4 µM
same,TGI,[35],> 100 µM
same,TGI,[36],> 100 µM
same,TGI,[39],> 100 µM
same,TGI,[40],39.5 µM
same,TGI,[41],63.2 µM
same,TGI,[42],> 100 µM
same,TGI,[43],> 100 µM
same,TGI,[44],> 100 µM
same,TGI,[45],> 100 µM
same,TGI,[46],> 100 µM
same,TGI,[47],> 100 µM
same,TGI,[48],61.3 µM
same,TGI,[49],> 100 µM
same,TGI,[50],> 100 µM
same,TGI,[51],> 100 µM
same,TGI,[52],> 100 µM
same,TGI,[53],> 100 µM
same,TGI,[54],> 100 µM
same,TGI,[55],> 100 µM
same,TGI,[56],> 100 µM
same,TGI,[57],71.2 µM
